From patent US20130116263A1, “PAK INHIBITORS FOR THE TREATMENT OF CELL PROLIFERATIVE DISORDERS” (AFRAXIS, INC., priority 2011, published 2013)
pIC50: −log10 of the molar value.

Each molecule was assayed on OVCAR-3 (assay: Growth inhibition in cancer cell lines (CellTiter-Glo), OVCAR-3). Settings: Homo sapiens; OVCAR-3, 72 hours exposure.
Type: cell-based
From the text: (§1) Methodology: 60 cell lines (CCRF-CEM, HL-60(TB), K-562, MOLT-4, RPMI-8226, SR, A549, EKVX, HOP-62, HOP-92, NCI-H226, NCI-H23, NCI-H322M, NCI-H460, NCI-H522, COLO 205, HCC-2998, HCT-116, HCT-15, HT29, KM12, SW-620, SF-268, SF-295, SF-539, SNB-19, SNB-75, U251, LOX IMV1, MALME-3M, M14, SK-MEL-2, SK− MEL-28, SK-MEL-5, UACC-257, UACC-62, IGR-OV 1, OVCAR-3, OVCAR-4, OVCAR-5, OVCAR-8, SK-OV-3, 786-0, A498, ACHN, CAKI-1, RXF 393, SN12C, TK-10, UO-31, PC-3, DU-145, MCF7, NCI/ADR-RES, MDA-MB-231, HS 578T, MDA-MB-435, MDA-MB-468, BT-549, and T-47D) are grown in RPMI-1640 medium with 10% FBS. Stock solutions of a test compound are prepared in DMSO. Concentrations of from about 0.001 μM to about 20 μM of each compound in RPM-1640 media are prepared. The test compound is added to wells containing 50 μL of cells and medium. A CellTiter-Glo (CTG) assay is carried out on the 0 hr plate to obtain a 0 hr count. Cells are exposed to the test compound for 72 hours. Following the exposure period, the plates are assayed using CTG. Luminescence is recorded on Synergy.
(§2) As a non-limiting example, Compound 30 as described herein was tested for growth inhibition against various cancer cell lines.

SMILES	GI50 [nM]
CCn1c(=O)c(-c2ccc(-c3nccnc3C)cc2Cl)cc2cnc(NC3CCOC(C)(C)C3)nc21 (centres unmarked) [Compound 30]	3100

Same assay, conditions: OVCAR-3, 72 hours exposure

SMILES	Maximum Inhibition [%]
CCn1c(=O)c(-c2ccc(-c3nccnc3C)cc2Cl)cc2cnc(NC3CCOC(C)(C)C3)nc21 (centres unmarked) [Compound 30]	−20

These molecules were tested on EBC-1 (assay: Growth inhibition in cancer cell lines (CellTiter-Glo), EBC-1). Settings: EBC-1, 72 hours exposure.
Type: cell-based

SMILES	Maximum Inhibition [%]
CCn1c(=O)c(-c2ccc(-c3nccnc3C)cc2Cl)cc2cnc(NC3CCOC(C)(C)C3)nc21 (centres unmarked) [Compound 30]	−13

Same assay, conditions: Homo sapiens; EBC-1, 72 hours exposure

SMILES	GI50 [nM]
CCn1c(=O)c(-c2ccc(-c3nccnc3C)cc2Cl)cc2cnc(NC3CCOC(C)(C)C3)nc21 (centres unmarked) [Compound 30]	3500

What follows are molecules tested on p-MEK1(S298) (assay: In vitro cellular HTRF assay for p-MEK1(S298)). Settings: cell line RT4-D6P2T, read-out: pMEK1(S298).
Type: cell-based
From the text: (§3) Some of the compounds for treatment of cancer are subject to in vitro cellular HTRF assay for p-PAK1(S144) and p-MEK1(S298). The cell line is RT4-D6P2T.

SMILES	pIC50
CCn1c(=O)c(-c2ccc(-c3cncc(C)n3)cc2Cl)cc2cnc(NCC3CCC(N)CC3)nc21 (centres unmarked) [drawing 383]	5.30 to 6.30
Cc1nc(-c2ccc(-c3cc4cnc(NC5CCOCC5)nc4n(Cc4cccc(CCN)c4)c3=O)c(Cl)c2)no1 [drawing 395]	6.30 to 7.30
Cc1nc(-c2ccc(-c3cc4cnc(NC5CCNC(=O)C5)nc4n(Cc4c(F)cccc4C(F)(F)F)c3=O)c(Cl)c2)no1 (centres unmarked) [drawing 382]	< 5.30
CCn1c(=O)c(-c2ccc(-c3cccc(C)n3)cc2Cl)cc2cnc(N[C@H]3CC[C@H](CN(C)C)CC3)nc21	5.30 to 6.30
Cc1nc(-c2ccc(-c3cc4cnc(NC5CCOCC5)nc4n(Cc4cccc(CN)c4)c3=O)c(Cl)c2)no1 [drawing 379]	5.30 to 6.30
Cc1nc(-c2ccc(-c3cc4cnc(NC5CCOCC5)nc4n(CCC4CCNCC4)c3=O)c(Cl)c2)no1 [drawing 378]	5.30 to 6.30
Cc1nc(-c2ccc(-c3cc4cnc(NC5CCOCC5)nc4n(CC(=O)NCc4ccncc4)c3=O)c(Cl)c2)no1 [drawing 388]	< 5.30
CCn1c(=O)c(-c2ccc(-c3cncc(C)n3)cc2Cl)cc2cnc(NCCC3CCN(C)CC3)nc21 [drawing 390]	6.30 to 7.30
CCn1c(=O)c(-c2ccc(-c3cncc(C)n3)cc2Cl)cc2cnc(NC3CCOCC3)nc21 [drawing 391]	5.30 to 6.30
CCn1c(=O)c(-c2ccc(-c3cncc(C)n3)cc2Cl)cc2cnc(N[C@H]3CCOC3)nc21 [drawing 389]	< 5.30
CCn1c(=O)c(-c2ccc(-c3cccnc3F)cc2Cl)cc2cnc(NC3CCOCC3)nc21 [drawing 392]	5.30 to 6.30
CCn1c(=O)c(-c2ccc(-c3nccnc3C)cc2Cl)cc2cnc(NC3CCOC(C)(C)C3)nc21 (centres unmarked) [drawing 385]	5.30 to 6.30
Cc1nc(-c2ccc(-c3cc4cnc(NC5CCOCC5)nc4n(Cc4ccc(CN)cc4)c3=O)c(Cl)c2)no1 [drawing 397]	5.30 to 6.30
Cc1nc(-c2ccc(-c3cc4cnc(NC5CCOCC5)nc4n(CC4CCNCC4)c3=O)c(Cl)c2)no1 [drawing 396]	5.30 to 6.30
Cc1nc(-c2ccc(-c3cc4cnc(NC5CCOCC5)nc4n(Cc4cccc(OCCN)c4)c3=O)c(Cl)c2)no1 [drawing 380]	5.30 to 6.30
CN(C)C[C@@H](NC(=O)N1Cc2c(Nc3ncnc4sccc34)n[nH]c2C1(C)C)c1ccccc1	5.30 to 6.30
Cc1cncc(-c2ccc(-c3cc4cnc(N[C@@H]5CCOC5)nc4n(CCCN)c3=O)c(Cl)c2)n1 [drawing 384]	5.30 to 6.30
Cc1nc(-c2ccc(-c3cc4cnc(NC5CCOCC5)nc4n(CC(=O)N4CCC(CN)CC4)c3=O)c(Cl)c2)no1 [drawing 381]	< 5.30
Cc1nc(-c2ccc(-c3cc4cnc(NC5CCOCC5)nc4n(CC(=O)NC4CCNC4)c3=O)c(Cl)c2)no1 (centres unmarked) [drawing 387]	< 5.30
Cc1nc(-c2ccc(-c3cc4cnc(NC5CCOCC5)nc4n(Cc4ccc(CCN)cc4)c3=O)c(Cl)c2)no1 [drawing 394]	5.30 to 6.30

The molecules below were run on OVCAR-4 (assay: Growth inhibition in cancer cell lines (CellTiter-Glo), OVCAR-4). Settings: Homo sapiens; OVCAR-4, 72 hours exposure.
Type: cell-based
From the text: as §1, §2

SMILES	GI50 [nM]
CCn1c(=O)c(-c2ccc(-c3nccnc3C)cc2Cl)cc2cnc(NC3CCOC(C)(C)C3)nc21 (centres unmarked) [Compound 30]	2600

Same assay, conditions: OVCAR-4, 72 hours exposure

SMILES	Maximum Inhibition [%]
CCn1c(=O)c(-c2ccc(-c3nccnc3C)cc2Cl)cc2cnc(NC3CCOC(C)(C)C3)nc21 (centres unmarked) [Compound 30]	−50

Each molecule was assayed on NCI-H520 (assay: Growth inhibition in cancer cell lines (CellTiter-Glo), NCI-H520). Settings: Homo sapiens; NCI-H520, 72 hours exposure.
Type: cell-based
From the text: as §1, §2

SMILES	GI50 [nM]
CCn1c(=O)c(-c2ccc(-c3nccnc3C)cc2Cl)cc2cnc(NC3CCOC(C)(C)C3)nc21 (centres unmarked) [Compound 30]	6000

Same assay, conditions: NCI-H520, 72 hours exposure

SMILES	Maximum Inhibition [%]
CCn1c(=O)c(-c2ccc(-c3nccnc3C)cc2Cl)cc2cnc(NC3CCOC(C)(C)C3)nc21 (centres unmarked) [Compound 30]	−17

Each molecule was assayed on SK-MES-1 (assay: Growth inhibition in cancer cell lines (CellTiter-Glo), SK-MES-1). Settings: Homo sapiens; SK-MES-1, 72 hours exposure.
Type: cell-based

SMILES	GI50 [nM]
CCn1c(=O)c(-c2ccc(-c3nccnc3C)cc2Cl)cc2cnc(NC3CCOC(C)(C)C3)nc21 (centres unmarked) [Compound 30]	3800

Same assay, conditions: SK-MES-1, 72 hours exposure

SMILES	Maximum Inhibition [%]
CCn1c(=O)c(-c2ccc(-c3nccnc3C)cc2Cl)cc2cnc(NC3CCOC(C)(C)C3)nc21 (centres unmarked) [Compound 30]	−14

What follows are molecules tested on p-PAK1(S144) (assay: In vitro cellular HTRF assay for p-PAK1(S144)). Settings: cell line RT4-D6P2T, read-out: pPAK1(S144).
Type: cell-based
From the text: as §3

SMILES	pIC50
CCn1c(=O)c(-c2ccc(-c3cncc(C)n3)cc2Cl)cc2cnc(NCC3CCC(N)CC3)nc21 (centres unmarked) [drawing 383]	6.30 to 7.30
Cc1nc(-c2ccc(-c3cc4cnc(NC5CCOCC5)nc4n(Cc4cccc(CCN)c4)c3=O)c(Cl)c2)no1 [drawing 395]	6.30 to 7.30
Cc1nc(-c2ccc(-c3cc4cnc(NC5CCNC(=O)C5)nc4n(Cc4c(F)cccc4C(F)(F)F)c3=O)c(Cl)c2)no1 (centres unmarked) [drawing 382]	5.30 to 6.30
CCn1c(=O)c(-c2ccc(-c3cccc(C)n3)cc2Cl)cc2cnc(N[C@H]3CC[C@H](CN(C)C)CC3)nc21	5.30 to 6.30
Cc1nc(-c2ccc(-c3cc4cnc(NC5CCOCC5)nc4n(Cc4cccc(CN)c4)c3=O)c(Cl)c2)no1 [drawing 379]	6.30 to 7.30
Cc1nc(-c2ccc(-c3cc4cnc(NC5CCOCC5)nc4n(CC(=O)NCc4ccncc4)c3=O)c(Cl)c2)no1 [drawing 388]	5.30 to 6.30
CCn1c(=O)c(-c2ccc(-c3cncc(C)n3)cc2Cl)cc2cnc(NCCC3CCN(C)CC3)nc21 [drawing 390]	6.30 to 7.30
CCn1c(=O)c(-c2ccc(-c3cncc(C)n3)cc2Cl)cc2cnc(NC3CCOCC3)nc21 [drawing 391]	6.30 to 7.30
CCn1c(=O)c(-c2ccc(-c3cncc(C)n3)cc2Cl)cc2cnc(N[C@H]3CCOC3)nc21 [drawing 389]	5.30 to 6.30
CCn1c(=O)c(-c2ccc(-c3cccnc3F)cc2Cl)cc2cnc(NC3CCOCC3)nc21 [drawing 392]	5.30 to 6.30
CCn1c(=O)c(-c2ccc(-c3nccnc3C)cc2Cl)cc2cnc(NC3CCOC(C)(C)C3)nc21 (centres unmarked) [drawing 385]	5.30 to 6.30
Cc1nc(-c2ccc(-c3cc4cnc(NC5CCOCC5)nc4n(Cc4ccc(CN)cc4)c3=O)c(Cl)c2)no1 [drawing 397]	6.30 to 7.30
Cc1nc(-c2ccc(-c3cc4cnc(NC5CCOCC5)nc4n(CC4CCNCC4)c3=O)c(Cl)c2)no1 [drawing 396]	6.30 to 7.30
Cc1nc(-c2ccc(-c3cc4cnc(NC5CCOCC5)nc4n(Cc4cccc(OCCN)c4)c3=O)c(Cl)c2)no1 [drawing 380]	5.30 to 6.30
CN(C)C[C@@H](NC(=O)N1Cc2c(Nc3ncnc4sccc34)n[nH]c2C1(C)C)c1ccccc1	6.30 to 7.30
Cc1cncc(-c2ccc(-c3cc4cnc(N[C@@H]5CCOC5)nc4n(CCCN)c3=O)c(Cl)c2)n1 [drawing 384]	5.30 to 6.30
Cc1nc(-c2ccc(-c3cc4cnc(NC5CCOCC5)nc4n(Cc4ccc(CCN)cc4)c3=O)c(Cl)c2)no1 [drawing 394]	6.30 to 7.30

The molecules below were run on IGROV-1 (assay: Growth inhibition in cancer cell lines (CellTiter-Glo), IGROV-1). Settings: Homo sapiens; IGROV-1, 72 hours exposure.
Type: cell-based
From the text: as §1, §2

SMILES	GI50 [nM]
CCn1c(=O)c(-c2ccc(-c3nccnc3C)cc2Cl)cc2cnc(NC3CCOC(C)(C)C3)nc21 (centres unmarked) [Compound 30]	330

Same assay, conditions: IGROV-1, 72 hours exposure

SMILES	Maximum Inhibition [%]
CCn1c(=O)c(-c2ccc(-c3nccnc3C)cc2Cl)cc2cnc(NC3CCOC(C)(C)C3)nc21 (centres unmarked) [Compound 30]	−50

Each molecule was assayed on SKOV-3 (assay: Growth inhibition in cancer cell lines (CellTiter-Glo), SKOV-3). Settings: Homo sapiens, SK-OV-3; SKOV-3, 72 hours exposure.
Type: cell-based
From the text: as §1, §2

SMILES	GI50 [nM]
CCn1c(=O)c(-c2ccc(-c3nccnc3C)cc2Cl)cc2cnc(NC3CCOC(C)(C)C3)nc21 (centres unmarked) [Compound 30]	3800
